The results in this text go back to patent US20250206721A1, “Prostaglandin Receptor EP2 Antagonists, Derivatives, and Uses Related Thereto” (Emory University, priority 2019, published 2025).

One series has as its target T1, human EP2 receptor (Homo sapiens, UniProt P43116).
T1 construct: expressed in transfected cells
Description: Cell-based cAMP TR-FRET assay, Schild KB on EP2. The following applies: for Kb / EP2 KB: Schild KB, agonist PGE2, antagonist concentration 1 μM, C6G cells expressing human EP2; for fold less EP2 potency in comparison to 2a: comparator 2a; for fold less potent than equivalent derivative: 11a vs 8b, 11b vs 8g, 11c vs 8f. Background: In TR-FRET formats the signal depends on donor and acceptor labels being close together.

The nature of series [1]: Kinetic aqueous solubility in PBS by nephelometry. The following applies: for Aqueous Solubility: PBS buffer (pH 7.4) with 1% DMSO, nephelometry.
The conditions of series [2]: pH 2.
A further series in a line: in vivo. As to conditions: C57BL/6, mouse, ip, 10 mg/kg.
A further series deals with human IP receptor (Homo sapiens, UniProt P43119). Description: Cell-based cAMP TR-FRET assay on IP (agonist iloprost). As to conditions: selectivity index IP KB/EP2 KB, fold.
human IP receptor, sequence (P43119 whole entry): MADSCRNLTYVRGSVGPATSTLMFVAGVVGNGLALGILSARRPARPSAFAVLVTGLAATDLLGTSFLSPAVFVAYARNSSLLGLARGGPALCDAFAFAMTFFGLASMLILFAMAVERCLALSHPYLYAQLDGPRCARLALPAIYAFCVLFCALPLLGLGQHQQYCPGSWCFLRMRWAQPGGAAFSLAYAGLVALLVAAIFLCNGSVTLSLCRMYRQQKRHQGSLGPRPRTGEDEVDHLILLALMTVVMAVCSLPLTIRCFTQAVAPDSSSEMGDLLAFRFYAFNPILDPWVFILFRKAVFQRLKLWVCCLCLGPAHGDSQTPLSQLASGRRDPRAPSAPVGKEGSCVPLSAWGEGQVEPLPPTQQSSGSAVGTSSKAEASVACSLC
The next series has as its target human EP4 receptor (Homo sapiens, UniProt P35408). The experiment in a line: Cell-based cAMP TR-FRET assay on EP4 (agonist PGE2). As to conditions: selectivity index EP4 KB/EP2 KB, fold.

Values after ≈ are worked out from the molar mass of the structure shown. Marks after values point to notes of the source that are not given here.

T1 sequence (P43116 whole entry): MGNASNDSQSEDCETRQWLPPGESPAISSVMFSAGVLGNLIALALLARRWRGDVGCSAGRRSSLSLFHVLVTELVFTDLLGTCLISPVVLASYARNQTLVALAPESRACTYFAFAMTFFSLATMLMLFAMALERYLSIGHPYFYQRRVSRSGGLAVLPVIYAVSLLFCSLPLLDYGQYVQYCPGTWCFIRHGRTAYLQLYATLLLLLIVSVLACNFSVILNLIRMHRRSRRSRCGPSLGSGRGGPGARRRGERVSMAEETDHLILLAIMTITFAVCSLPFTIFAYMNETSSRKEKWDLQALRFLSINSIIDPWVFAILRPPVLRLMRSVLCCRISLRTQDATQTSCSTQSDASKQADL
human EP4 receptor, sequence (P35408 whole entry): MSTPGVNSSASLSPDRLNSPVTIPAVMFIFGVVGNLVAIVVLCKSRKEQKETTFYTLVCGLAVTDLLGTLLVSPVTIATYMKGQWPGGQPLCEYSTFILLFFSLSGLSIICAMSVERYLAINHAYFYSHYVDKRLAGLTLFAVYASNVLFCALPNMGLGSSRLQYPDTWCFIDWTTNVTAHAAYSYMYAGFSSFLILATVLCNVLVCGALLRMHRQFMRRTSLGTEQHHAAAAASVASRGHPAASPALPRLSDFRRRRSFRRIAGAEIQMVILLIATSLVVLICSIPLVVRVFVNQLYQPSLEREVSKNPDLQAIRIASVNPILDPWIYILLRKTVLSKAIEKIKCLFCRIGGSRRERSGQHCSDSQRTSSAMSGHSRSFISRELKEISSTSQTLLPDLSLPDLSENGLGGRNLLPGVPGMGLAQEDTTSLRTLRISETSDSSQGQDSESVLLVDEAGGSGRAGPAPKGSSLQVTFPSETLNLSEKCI

What is called Kb is the equilibrium dissociation constant of an antagonist, usually derived from a functional assay. High values mean a less potent antagonist, low ones a more potent antagonist. A word on the Aqueous Solubility: it is the concentration that dissolves in the medium under given conditions. For `Cc1[nH]c2ccccc2c1CCNC(=O)c1ccc(N2CCOCC2)nc1` [Compound 2b, N-(2-(2-Methyl-1H-indol-3-yl)ethyl)-6-morpholinonicotinamide], at human EP2 receptor, the Kb stood at 118 nM and the “fold less EP2 potency in comparison to 2a” value amounted to 4 fold. Also, in series [1], the “Aqueous Solubility” value amounted to 206 µM. For the same compound, the “fold increased aqueous solubility” value in series [1] (comparator 2a) came out at 3 fold.
As for `Cc1[nH]c2ccccc2c1CCNC(=O)c1ccc(-c2ccccc2)nc1` [Compound 8a, N-(2-(2-Methyl-1H-indol-3-yl)ethyl)-6-phenylnicotinamide], the “Solubility in SGF” value in series [2] is above 100 µM. Further, in series [1], the “Aqueous Solubility” value came to 25 µM.
The matching figures for `COc1cccc(-c2ccc(C(=O)NCCc3c(C)[nH]c4ccccc34)cn2)c1` [Compound 8b, 6-(3-Methoxyphenyl)-N-(2-(2-methyl-1H-indol-3-yl)ethyl)nicotinamide]: above 100 µM and 13 µM.
Usually half-life stands for the time in which the quantity being followed falls by half. In turn, `COc1ccccc1-c1ccc(C(=O)NCCc2c(C)[nH]c3ccccc23)cn1` [Compound 8c, 6-(2-Methoxyphenyl)-N-(2-(2-methyl-1H-indol-3-yl)ethyl)nicotinamide] showed a half-life in the series “in vivo” below 1 h. Besides, the “Solubility in SGF” value in series [2] is above 100 µM. In series [1], the “Aqueous Solubility” value is 28 µM.
Consider `Cc1[nH]c2ccccc2c1CCNC(=O)c1ccc(-c2ccccc2O)nc1` [Compound 8d, 6-(2-Hydroxyphenyl)-N-(2-(2-methyl-1H-indol-3-yl)ethyl)nicotinamide], for which, in series [2], the “Solubility in SGF” value is listed as 50^c μM. In series [1], the “Aqueous Solubility” value came to 8 µM.
Consider `Cc1[nH]c2ccccc2c1CCNC(=O)c1ccc(-c2ccccc2F)nc1` [Compound 8e, 6-(2-Fluorophenyl)-N-(2-(2-methyl-1H-indol-3-yl)ethyl)nicotinamide], for which, at human EP2 receptor, the “fold less EP2 potency in comparison to 2a” value was found to be 2 fold. For the same compound, the “fold less EP2 potency in comparison to 8c” value at human EP2 receptor (comparator 8c (14b vs. 14c or 8c)) worked out at 4 fold. Further, in series [2], the “Solubility in SGF” value was above 100 µM. In addition, the “Aqueous Solubility” value in series [1] came out at 22 µM.
Regarding `CC(=O)Nc1ccc(-c2ccc(C(=O)NCCc3c(C)[nH]c4ccccc34)cn2)cc1` [Compound 8f, 6-(4-Acetamidophenyl)-N-(2-(2-methyl-1H-indol-3-yl)ethyl)nicotinamide], in series [2], the “Solubility in SGF” value was above 100 µM. For the same compound, the “Aqueous Solubility” value in series [1] worked out at 25 µM.
For the compound `COc1cc(OC)cc(-c2ccc(C(=O)NCCc3c(C)[nH]c4ccccc34)cn2)c1` [Compound 8g, 6-(3,5-Dimethoxyphenyl)-N-(2-(2-methyl-1H-indol-3-yl)ethyl)nicotinamide], the half-life in the series “in vivo” is below 1 h. For the same compound, the “Solubility in SGF” value in series [2] was above 100 µM. In addition, the “Aqueous Solubility” value in series [1] is 12 µM.
Turning to `COc1cccc(-c2ccc(C(=O)NCCc3c(C)[nH]c4ccccc34)nc2)c1` [Compound 11a, 5-(3-Methoxyphenyl)-N-(2-(2-methyl-1H-indol-3-yl)ethyl)picolinamide], on human EP2 receptor, the “fold less potent than equivalent derivative” value came out at 4 fold. For the same compound, the “Solubility in SGF” value in series [2] stood at 14 µM (≈ 5.4 µg/mL). Besides, the “Aqueous Solubility” value in series [1] was found to be 14 µM.
Turning to `COc1cc(OC)cc(-c2ccc(C(=O)NCCc3c(C)[nH]c4ccccc34)nc2)c1` [Compound 11b, 5-(3,5-Dimethoxyphenyl)-N-(2-(2-methyl-1H-indol-3-yl)ethyl)picolinamide], the “fold less potent than equivalent derivative” value at human EP2 receptor is listed as 11 fold. Also, the “Solubility in SGF” value in series [2] came out at 10 µM (≈ 4.15 µg/mL). In addition, the “Aqueous Solubility” value in series [1] stood at 10 µM.
Regarding `CC(=O)Nc1ccc(-c2ccc(C(=O)NCCc3c(C)[nH]c4ccccc34)nc2)cc1` [Compound 11c, 5-(4-Acetamidophenyl)-N-(2-(2-methyl-1H-indol-3-yl)ethyl)picolinamide], the “Solubility in SGF” value in series [2] came out at 10 µM (≈ 4.12 µg/mL). Besides, in series [1], the “Aqueous Solubility” value worked out at 10 µM.
`COc1ccccc1-c1ccc(C(=O)NCCc2c(C)[nH]c3ccccc23)cc1F` [Compound 14b, 2-Fluoro-2′-methoxy-N-(2-(2-methyl-1H-indol-3-yl)ethyl)-[1,1′-biphenyl]-4-carboxamide]: the “Solubility in SGF” value in series [2] was 10^d μM. In addition, the “Aqueous Solubility” value in series [1] was determined as 10 µM.
Take `COc1ccccc1-c1ccc(C(=O)NCCc2c(C)[nH]c3ccccc23)cc1` [Compound 14c, 2′-Methoxy-N-(2-(2-methyl-1H-indol-3-yl)ethyl)-[1,1′-biphenyl]-4-carboxamide]: the “Aqueous Solubility” value in series [1] was found to be 5 µM.
Same read-out and setting: under `Cc1[nH]c2ccccc2c1CCNC(=O)c1cnc(Nc2cc(C(C)(C)C)ccn2)nc1` [Compound 20d, 2-((4-(tert-Butyl)pyridin-2-yl)amino)-N-(2-(2-methyl-1H-indol-3-yl)ethyl)pyrimidine-5-carboxamide] stands 5 µM.
For the compound `Cc1cccc(Nc2ncc(C(=O)NCCc3c(C)[nH]c4ccccc34)cn2)n1` [Compound 20e, N-(2-(2-Methyl-1H-indol-3-yl)ethyl)-2-((6-methylpyridin-2-yl)amino)pyrimidine-5-carboxamide], the “S.I (IP/EP2)” value on human IP receptor is above 1500. For the same compound, the “Aqueous Solubility” value in series [1] was determined as 25 µM. Besides, on human EP4 receptor, the “S.I (EP4/EP2)” value was above 1500.
For the compound `Cc1[nH]c2ccccc2c1CCNC(=O)c1cnc(Nc2cccc(C#N)n2)nc1` [Compound 20g, 2-((6-Cyanopyridin-2-yl)amino)-N-(2-(2-methyl-1H-indol-3-yl)ethyl)pyrimidine-5-carboxamide], in series [1], the “Aqueous Solubility” value was determined as 13 µM.
On the same count and under the same terms, the result for `Cc1[nH]c2ccccc2c1CCNC(=O)c1cnc(Nc2cccc(O)n2)nc1` [Compound 20i, 2-((6-Hydroxypyridin-2-yl)amino)-N-(2-(2-methyl-1H-indol-3-yl)ethyl)pyrimidine-5-carboxamide] reads 10 µM; that for `CC(=O)c1cccc(Nc2ncc(C(=O)NCCc3c(C)[nH]c4ccccc34)cn2)n1` [Compound 20j, 2-((6-Acetylpyridin-2-yl)amino)-N-(2-(2-methyl-1H-indol-3-yl)ethyl)pyrimidine-5-carboxamide], 5 µM.
For the compound `CC(=O)c1ccc(Nc2ncc(C(=O)NCCc3c(C)[nH]c4ccccc34)cn2)nc1` [Compound 20l, 2-((5-Acetylpyridin-2-yl)amino)-N-(2-(2-methyl-1H-indol-3-yl)ethyl)pyrimidine-5-carboxamide], the Kb at human EP2 receptor turned out to be 166 nM. Besides, the “fold reduced EP2 potency in comparison to 20b” value at human EP2 receptor (comparator 20b) is given as 20 fold.
On to `CCC(C)(O)c1cccc(Nc2ncc(C(=O)NCCc3c(C)[nH]c4ccccc34)cn2)n1` (stereo not drawn) [Compound 20m, 2-((6-(2-Hydroxybutan-2-yl)pyridin-2-yl)amino)-N-(2-(2-methyl-1H-indol-3-yl)ethyl) pyrimidine-5-carboxamide], for which the “Aqueous Solubility” value in series [1] is 6 µM.
Same read-out and setting: under `Cc1[nH]c2ccccc2c1CCNC(=O)c1cnc(Nc2cccc(C(C)(C)C)n2)nc1` [Compound 20n, 2-((6-(tert-Butyl)pyridin-2-yl)amino)-N-(2-(2-methyl-1H-indol-3-yl)ethyl)pyrimidine-5-carboxamide] stands 25 µM.
For the compound `Cc1[nH]c2ccccc2c1CCNC(=O)c1cnc(Nc2ccncc2)nc1` [Compound 20p, N-(2-(2-Methyl-1H-indol-3-yl)ethyl)-2-(pyridin-4-ylamino)pyrimidine-5-carboxamide], the “EP2 KB” value at human EP2 receptor was “complete loss of potency”. Moreover, the “Aqueous Solubility” value in series [1] amounted to 38 µM.
On to `Cc1ccc(Nc2ncc(C(=O)NCCc3c(C)[nH]c4ccccc34)cn2)c(C)n1` [Compound 20r, 2-((2,6-Dimethylpyridin-3-yl)amino)-N-(2-(2-methyl-1H-indol-3-yl)ethyl)pyrimidine-5-carboxamide], for which, at human EP2 receptor (20f vs. 20c, 20n vs. 20e, comparator of 20g and 20r not stated), the “fold reduced EP2 potency” value was 10 fold. The compound further gave an antagonist equilibrium constant (Kb) at human EP2 receptor of 88.1 nM. Further, the “Aqueous Solubility” value in series [1] was 100 µM.
With `Cc1cc(C)nc(Nc2ncc(C(=O)NCCc3c(C)[nH]c4ccc(F)cc34)cn2)c1` [Compound 24a, 2-((4,6-Dimethylpyridin-2-yl)amino)-N-(2-(5-fluoro-2-methyl-1H-indol-3-yl)ethyl)pyrimidine-5-carboxamide], the “S.I (IP/EP2)” value on human IP receptor was 770. Moreover, the “Aqueous Solubility” value in series [1] was 5 µM.
For `COc1ccc2[nH]c(C)c(CCNC(=O)c3cnc(Nc4cc(C)cc(C)n4)nc3)c2c1` [Compound 24e, 2-((4,6-Dimethylpyridin-2-yl)amino)-N-(2-(5-methoxy-2-methyl-1H-indol-3-yl)ethyl)pyrimidine-5-carboxamide], in series [1], the “Aqueous Solubility” value was determined as 20 µM.
At human EP2 receptor, `Cc1cc(C)nc(Nc2ncc(C(=O)NCCc3c(C(F)(F)F)[nH]c4ccccc34)cn2)c1` [Compound 24f, 2-((4,6-Dimethylpyridin-2-yl)amino)-N-(2-(2-(trifluoromethyl)-1H-indol-3-yl)ethyl)pyrimidine-5-carboxamide] registered an antagonist dissociation constant (Kb) of 66 nM. Further, on human EP2 receptor (comparator 20o), the “fold reduced EP2 potency in comparison to 20o” value was 8 fold. Also, the “Aqueous Solubility” value in series [1] worked out at 45 µM.
Consider `Cc1cc(C)nc(Nc2ncc(C(=O)NCCc3c(C)nn4ccccc34)cn2)c1` [Compound 24g, 2-((4,6-Dimethylpyridin-2-yl)amino)-N-(2-(2-methylpyrazolo[1,5-a]pyridin-3-yl)ethyl)pyrimidi-ne-5-carboxamide], for which the “Aqueous Solubility” value in series [1] worked out at 70 µM.
Consider `Cc1cc(C)nc(Nc2ncc(C(=O)NCC(=O)c3c(C)[nH]c4ccccc34)cn2)c1` [Compound 24h, 2-((4,6-Dimethylpyridin-2-yl)amino)-N-(2-(2-methyl-1H-indol-3-yl)-2-oxoethyl)pyrimidine-5-carboxamide], for which the “EP2 KB” value on human EP2 receptor is reported as “eliminated the potency”.
